Data on 10 compounds can be found in ChEMBL document CHEMBL5126664, “Anti-Epstein-Barr Viral Agents from the Medicinal Herb-Derived Fungus Alternaria alstroemeriae Km2286” (J Nat Prod, 2022).

Series [1] relates to BV-2. Briefly: Antiinflammatory activity in mouse BV2 cells assessed as reduction in LPS-induced nitric oxide production at 10 uM by colorimetric assay relative to control. The series is classed as functional.
Series [2] deals with BV-2. Briefly: Antiinflammatory activity in mouse BV2 cells assessed as reduction in LPS-induced nitric oxide production by colorimetric assay. The format is functional, cell-based.
In series [3] the test system is Human gammaherpesvirus 4. Briefly: Antiviral activity against EBV infected in P3HR1 cells assessed as decrease in viral replication. The series is classed as functional, organism-based. The conditions noted are these: human gammaherpesvirus 4, P3HR-1.
For series [4], the system named is Human gammaherpesvirus 4. Briefly: Antiviral activity against EBV infected in P3HR1 cells assessed as decrease in Rta cells at 10 uM measured after 24 hrs by Western blot analysis relative to control. The format is functional. The conditions noted are these: human gammaherpesvirus 4, P3HR-1.
A short description of series [5]: Cytotoxicity against human P3HR1 cells. The format is toxicity, cell-based, P3HR-1.
The nature of series [6]: Selectivity index, ratio of CC50 for human P3HR1 cells to EC50 for EBV. The format is toxicity. As to conditions: read-out: Ratio CC50/EC50.

In general, inhibition refers to the change of the read-out against control, counted positive when it falls. One may read the IC50 as the point on the concentration scale where inhibition reaches its midpoint. As usually defined, the EC50 is the midpoint of the concentration-response curve. A word on the CC50: it is the concentration giving 50% cytotoxicity. `O=C1C=Cc2c3c4c(c(O)ccc4c4ccc(O)c1c24)[C@@H](O)[C@H](Cl)[C@@H]3O`: the results for the inhibition at 10 µM with BV-2 [1] and in the series with Human gammaherpesvirus 4 [4] were 76.2% and 100%, respectively. Besides, the IC50 in the series on BV-2 [2] turned out to be 2060 nM. The EC50 in the series on Human gammaherpesvirus 4 [3] was determined as 3130 nM. This compound also had a CC50 in series [5] above 100000 nM. In addition, the selectivity ratio in series [6] is above 32.
`COc1cc(/C=C/C(=O)CC(=O)/C=C/c2ccc(O)c(OC)c2)ccc1O` [CURCUMIN]: the IC50 in the series with BV-2 [2] was 2690 nM.
On to `CO[C@H]1c2c3c4c(c(O)ccc4c4ccc(O)c(c24)[C@@H](O)[C@H]1O)C(=O)C=C3`, for which the inhibition at 10 µM was determined as 105% in the series on BV-2 [1] and 100% in the series on Human gammaherpesvirus 4 [4]. Also, the IC50 in the series with BV-2 [2] was found to be 2730 nM. For the same compound, in the series on Human gammaherpesvirus 4 [3], the EC50 stood at 1210 nM. The same compound showed a CC50 in series [5] of 60200 nM. Further, the selectivity ratio in series [6] was determined as 49.7.
Take `O=C1C[C@H](O)[C@H]2c3ccc(O)c4c3[C@H](c3ccc(O)c1c32)[C@@H](O)[C@@H](Cl)[C@@H]4O`: the figures for the inhibition at 10 µM in the series with BV-2 [1] and with Human gammaherpesvirus 4 [4] were 92.1% and 100%, respectively. Besides, in the series on BV-2 [2], the IC50 is 4080 nM. Further, in the series on Human gammaherpesvirus 4 [3], the EC50 came to 2420 nM. Also, half-maximal cytotoxicity in series [5] (CC50) was put at 61200 nM. Besides, in series [6], the selectivity ratio worked out at 25.3.
For the compound `CC[C@H](C)[C@@H]1NC(=O)C(C(C)=O)=C1O` [TENUAZONIC ACID], the inhibition at 10 µM was determined as 62.9% in the series with BV-2 [1] and 23% in the series on Human gammaherpesvirus 4 [4].
With `O=C1C[C@@H](O)[C@@H]2c3ccc(O)c4c3[C@@H](c3ccc(O)c1c32)[C@H](O)CC4=O` [STEMPHYPERYLENOL], the figures for the inhibition at 10 µM with BV-2 [1] and in the series on Human gammaherpesvirus 4 [4] were 77.4% and 34%, respectively. For the same compound, the IC50 in the series on BV-2 [2] is 3250 nM.
Take `CC[C@H](C)[C@H]1NC(=O)C(C(C)=O)=C1O`: the inhibition at 10 µM in the series with BV-2 [1] was 41.1%; in the series on Human gammaherpesvirus 4 [4], -5%.
With `O=C1C=Cc2c3c4c(c(O)ccc4c4ccc(O)c1c24)[C@@H](O)[C@H](O)[C@@H]3O`, the inhibition at 10 µM was found to be 20.2% with BV-2 [1] and 100% in the series on Human gammaherpesvirus 4 [4]. In the series on Human gammaherpesvirus 4 [3], the EC50 was found to be 1340 nM. The compound further showed a CC50 in series [5] of 86100 nM. For the same compound, the selectivity ratio in series [6] is 64.3.
As to `O=C1C[C@H](SCC(O)C(=O)O)[C@@]2(O)c3c(ccc(O)c31)-c1ccc(O)c3c1[C@@H]2[C@@H](Cl)[C@H](O)[C@@H]3O` (stereo partly drawn), the results for the inhibition at 10 µM in the series with BV-2 [1] and in the series with Human gammaherpesvirus 4 [4] were 102% and 100%, respectively. Moreover, the IC50 with BV-2 [2] was 330 nM. In addition, the EC50 with Human gammaherpesvirus 4 [3] turned out to be 170 nM. The CC50 in series [5] worked out at 2300 nM. Moreover, in series [6], the selectivity ratio worked out at 13.5.
As to `O=C1C=Cc2c3c4c(c(O)ccc4c4ccc(O)c1c24)[C@@H](O)[C@@H](Cl)[C@H]3O`, the results for the inhibition at 10 µM with BV-2 [1] and in the series on Human gammaherpesvirus 4 [4] were 94.9% and 100%, respectively. The IC50 in the series on BV-2 [2] stood at 730 nM. Moreover, in the series on Human gammaherpesvirus 4 [3], the EC50 came out at 1510 nM. In addition, it took 39400 nM to reach half-maximal cytotoxicity in series [5] (CC50). In series [6], the selectivity ratio amounted to 26.1.
